In publication PMC6151437, “Antibacterial Synthetic Peptides Derived from Bovine Lactoferricin Exhibit Cytotoxic Effect against MDA-MB-468 and MDA-MB-231 Breast Cancer Cell Lines” (Molecules : A Journal of Synthetic Chemistry and Natural …, 2017):
Converted amounts (≈) assume the structure as drawn. Read-outs that look alike come from different tables or passages of the source. Bridge positions count the residues as written; N and C are the ends. Square brackets hold non-standard residues; d marks the D form. Ends that are not written are not given here. Peptide text beside a SMILES is read from it. I, II: the chains in the order shown. Ahx = NCCCCCC(=O)O

Columns and labels:
S. aureus ATCC 25923 = tested on: S. aureus ATCC 25923; design: method as in ref 15, 25, 26 = [15]; PMID 25815317; doi:10.1155/2015/453826; 15. León M.A. Leal A.L. Almanzar G. Rosas J.E. García J.E. Rivera Z.J. Antibacterial activity of synthetic peptides derived from Lactoferricin against Escherichia coli ATCC 25922 and Enterococcus faec || [25]; PMID 28613262; doi:10.3390/molecules22060987; 25. Huertas N.J. Monroy Z.J.R. Medina R.F. Castañeda J.E.G. Antimicrobial Activity of Truncated and Polyvalent Peptides Derived from the FKCRRWQWRMKKGLA Sequence against Escherichia coli ATCC 25922 an || [26]; PMID 28287494; doi:10.3390/molecules22030452; 26. Huertas Méndez N.J. Vargas Casanova Y. Gómez Chimbi A.K. Hernández E. Leal Castro A.L. Melo Diaz J.M. Rivera Monroy Z.J. García Castañeda J.E. Synthetic Peptides Derived from Bovine Lactoferricin; details: cited from earlier work
E. coli ATCC 11775 [1] = tested on: E. coli ATCC 11775; design: method as in ref 15, 25, 26 = [15]; PMID 25815317; doi:10.1155/2015/453826; 15. León M.A. Leal A.L. Almanzar G. Rosas J.E. García J.E. Rivera Z.J. Antibacterial activity of synthetic peptides derived from Lactoferricin against Escherichia coli ATCC 25922 and Enterococcus faec || [25]; PMID 28613262; doi:10.3390/molecules22060987; 25. Huertas N.J. Monroy Z.J.R. Medina R.F. Castañeda J.E.G. Antimicrobial Activity of Truncated and Polyvalent Peptides Derived from the FKCRRWQWRMKKGLA Sequence against Escherichia coli ATCC 25922 an || [26]; PMID 28287494; doi:10.3390/molecules22030452; 26. Huertas Méndez N.J. Vargas Casanova Y. Gómez Chimbi A.K. Hernández E. Leal Castro A.L. Melo Diaz J.M. Rivera Monroy Z.J. García Castañeda J.E. Synthetic Peptides Derived from Bovine Lactoferricin; details: cited from earlier work
E. coli ATCC 11775 [2] = assay type: cell-based
Protocol: (§1) The minimal inhibitory concentration (MIC) was determined using a microdilution assay. In brief, bacterial strains were incubated for 18 to 24 h at 37 °C in an Muller Hinton broth (MHB) until an optical density of 0.15 to 0.30 (620 nm) was obtained. 90 µL of MHB was mixed with 90 µL of peptide (440 µg/mL), and using a 96-well microtiter plate peptide, serial dilution (200, 100, 50, 25, 12.5, and 6.2 µg/mL) was performed. 10 µL of inoculum (2 × 10^6 CFU/mL) was added to each well. Final volume in each well was 100 µL. Then they were incubated for 24 h at 37 °C, and the absorbance at 620 nm was measured using an Asys Expert Plus ELISA reader. For determining the minimum bactericidal concentration (MBC), a small sample was taken from each well using an inoculation loop, which was then spread on MHA plates and incubated overnight at 37 °C. […] Each of these tests was performed twice (n = 2).

E. coli ATCC 25922 [3] = assay type: cell-based
Protocol: as §1

[4] = tested on: S. enteriditis ATCC 13076; design: method as in ref 15, 25, 26 = [15]; PMID 25815317; doi:10.1155/2015/453826; 15. León M.A. Leal A.L. Almanzar G. Rosas J.E. García J.E. Rivera Z.J. Antibacterial activity of synthetic peptides derived from Lactoferricin against Escherichia coli ATCC 25922 and Enterococcus faec || [25]; PMID 28613262; doi:10.3390/molecules22060987; 25. Huertas N.J. Monroy Z.J.R. Medina R.F. Castañeda J.E.G. Antimicrobial Activity of Truncated and Polyvalent Peptides Derived from the FKCRRWQWRMKKGLA Sequence against Escherichia coli ATCC 25922 an || [26]; PMID 28287494; doi:10.3390/molecules22030452; 26. Huertas Méndez N.J. Vargas Casanova Y. Gómez Chimbi A.K. Hernández E. Leal Castro A.L. Melo Diaz J.M. Rivera Monroy Z.J. García Castañeda J.E. Synthetic Peptides Derived from Bovine Lactoferricin; details: cited from earlier work
E. coli ATCC 25922 [5] = tested on: E. coli ATCC 25922; design: method as in ref 15, 25, 26 = [15]; PMID 25815317; doi:10.1155/2015/453826; 15. León M.A. Leal A.L. Almanzar G. Rosas J.E. García J.E. Rivera Z.J. Antibacterial activity of synthetic peptides derived from Lactoferricin against Escherichia coli ATCC 25922 and Enterococcus faec || [25]; PMID 28613262; doi:10.3390/molecules22060987; 25. Huertas N.J. Monroy Z.J.R. Medina R.F. Castañeda J.E.G. Antimicrobial Activity of Truncated and Polyvalent Peptides Derived from the FKCRRWQWRMKKGLA Sequence against Escherichia coli ATCC 25922 an || [26]; PMID 28287494; doi:10.3390/molecules22030452; 26. Huertas Méndez N.J. Vargas Casanova Y. Gómez Chimbi A.K. Hernández E. Leal Castro A.L. Melo Diaz J.M. Rivera Monroy Z.J. García Castañeda J.E. Synthetic Peptides Derived from Bovine Lactoferricin; details: cited from earlier work
[6] = assay type: cell-based, human
Protocol: (§2) Cytotoxicity assays were performed as previously described. Briefly, breast cancer cell lines (100 µL; 2.5 × 10^3 cells/well) were seeded in 96-well flat bottom tissue culture treated plates and were incubated at 37 °C in a 10% CO2 humidified atmosphere for 24 h, allowing for cell adhesion. Then the media was removed, then 100 µL of FBS (5%) and 100 µL of peptide were added. The peptide final concentration was ranging from 200 to 6.25 µg/mL and the final FBS concentration was 2.5%. Plates were incubated 2 h at 37 °C in a 10% CO2 humidified atmosphere (physiologic pH). Negative controls included medium and water. All controls were prepared in triplicate. Cell viability was determined using the MTT assay after 2 h. For this, 10 µL of MTT solution (5 mg/mL) was added to each well, and the plates were incubated for 2 h at 37 °C. Formazan crystals were clarified by centrifugation, the supernatant was discarded, and the crystals were dissolved in DMSO (100 µL). Absorbance (570 nm) was registered on a Bio-Rad 680 microplate reader. (n = 3).

E. coli = tested on: E. coli; design: method as in ref 15, 25, 26 = [15]; PMID 25815317; doi:10.1155/2015/453826; 15. León M.A. Leal A.L. Almanzar G. Rosas J.E. García J.E. Rivera Z.J. Antibacterial activity of synthetic peptides derived from Lactoferricin against Escherichia coli ATCC 25922 and Enterococcus faec || [25]; PMID 28613262; doi:10.3390/molecules22060987; 25. Huertas N.J. Monroy Z.J.R. Medina R.F. Castañeda J.E.G. Antimicrobial Activity of Truncated and Polyvalent Peptides Derived from the […] Sequence against Escherichia coli ATCC 25922 an || [26]; PMID 28287494; doi:10.3390/molecules22030452; 26. Huertas Méndez N.J. Vargas Casanova Y. Gómez Chimbi A.K. Hernández E. Leal Castro A.L. Melo Diaz J.M. Rivera Monroy Z.J. García Castañeda J.E. Synthetic Peptides Derived from Bovine Lactoferricin; details: first of three values given 'respectively', strain not distinguished; cited from earlier work
[7] = tested on: breast cancer cell line MDA-MB-231; details: even at the highest tested concentration (40 µM); cited from earlier work
Protocol: For the second part of the experiments, all members of each designed peptide family were tested against MDA-MB-468 and MDA-MB-231 breast cancer cell lines (Figure 3). […] When breast cancer cells lines were incubated with linear peptides or cyclic peptides (200 µg/mL), their viability was approximately 80%.

[8] = tested on: human gastric cancer cell line AGS; details: cited from earlier work
[9] = assay type: cell-based, human; remark: listed apart in the source
Protocol: as §2

[10] = E. coli ATCC 11775, microdilution in MHB, 24 h at 37 °C, absorbance 620 nm, n = 2
[11] = E. coli ATCC 11775, plated on MHA overnight at 37 °C, no bacterial growth, n = 2
[12] = E. coli ATCC 25922, microdilution in MHB, 24 h at 37 °C, absorbance 620 nm, n = 2
[13] = E. coli ATCC 25922, plated on MHA overnight at 37 °C, no bacterial growth, n = 2

Compound	MIC (S. aureus ATCC 25923) [µM]	MIC (E. coli ATCC 11775 [1]) [µM]	Antibacterial Effect MBC (E. coli ATCC 11775 [2]; ATCC 11775) [µM]	Antibacterial Effect MIC (E. coli ATCC 11775 [2]; ATCC 11775, 24 h) [µM]	Antibacterial Effect MIC (E. coli ATCC 11775 [2]; [10]) [µg/mL]	Antibacterial Effect MBC (E. coli ATCC 11775 [2]; [11]) [µg/mL]	Antibacterial Effect MBC (E. coli ATCC 25922 [3]; ATCC 25922) [µM]	Antibacterial Effect MIC (E. coli ATCC 25922 [3]; ATCC 25922, 24 h) [µM]	Antibacterial Effect MIC (E. coli ATCC 25922 [3]; [12]) [µg/mL]	Antibacterial Effect MBC (E. coli ATCC 25922 [3]; [13]) [µg/mL]	MIC [4] [µM]	MIC (E. coli ATCC 25922 [5]) [µM]	IC50 at 2 h ([6]; human) [µM]	MIC (E. coli) [µM]	IC50 [6] [µM]	cytotoxic activity (in words) [7]	IC50 [8] [µM]	IC50 [9] [µM]
N=C(N)NCCC[C@H](NC(=O)[C@H](Cc1c[nH]c2ccccc12)NC(=O)[C@H](CCC(N)=O)NC(=O)[C@H](Cc1c[nH]c2ccccc12)NC(=O)[C@H](CCCNC(=N)N)NC(=O)[C@@H](N)CCCNC(=N)N)C(=O)NCCCC[C@H](NC(=O)[C@H](CCCNC(=N)N)NC(=O)[C@H](Cc1c[nH]c2ccccc12)NC(=O)[C@H](CCC(N)=O)NC(=O)[C@H](Cc1c[nH]c2ccccc12)NC(=O)[C@H](CCCNC(=N)N)NC(=O)[C@@H](N)CCCNC(=N)N)C(=O)NCCCCCC(=O)N[C@@H](CSSC[C@H](NC(=O)CCCCCNC(=O)[C@H](CCCCNC(=O)[C@H](CCCNC(=N)N)NC(=O)[C@H](Cc1c[nH]c2ccccc12)NC(=O)[C@H](CCC(N)=O)NC(=O)[C@H](Cc1c[nH]c2ccccc12)NC(=O)[C@H](CCCNC(=N)N)NC(=O)[C@@H](N)CCCNC(=N)N)NC(=O)[C@H](CCCNC(=N)N)NC(=O)[C@H](Cc1c[nH]c2ccccc12)NC(=O)[C@H](CCC(N)=O)NC(=O)[C@H](Cc1c[nH]c2ccccc12)NC(=O)[C@H](CCCNC(=N)N)NC(=O)[C@@H](N)CCCNC(=N)N)C(N)=O)C(N)=O [LfcinB (20–25)4] (I: H-RRWQWRK[Ahx]C-NH2 / II: H-RRWQWRK[Ahx]C-NH2 / III: H-RRWQWR / IV: H-RRWQWR; amide I:7-III:C, II:7-IV:C; disulfide I:9-II:9)	25 (≈ 115 µg/mL)	5.5 (≈ 25.3 µg/mL)	44	22	100	200	22	22	100	100	44 (≈ 202 µg/mL)	4.4 (≈ 20.2 µg/mL)						
N=C(N)NCCC[C@H](NC(=O)[C@H](Cc1c[nH]c2ccccc12)NC(=O)[C@H](CCC(N)=O)NC(=O)[C@H](Cc1c[nH]c2ccccc12)NC(=O)[C@H](CCCNC(=N)N)NC(=O)[C@@H](N)CCCNC(=N)N)C(=O)NCCCC[C@H](NC(=O)[C@H](CCCNC(=N)N)NC(=O)[C@H](Cc1c[nH]c2ccccc12)NC(=O)[C@H](CCC(N)=O)NC(=O)[C@H](Cc1c[nH]c2ccccc12)NC(=O)[C@H](CCCNC(=N)N)NC(=O)[C@@H](N)CCCNC(=N)N)C(=O)NCCCCCC(N)=O [LfcinB (20–25)2] (I: H-RRWQWRK[Ahx]-NH2 / II: H-RRWQWR; amide I:7-II:C)	5.6 (≈ 12.3 µg/mL)		22	22	50	50	11	6	12.5	25	22.4 (≈ 49.2 µg/mL)		> 100	2.8 (≈ 6.15 µg/mL)				
RRWQWR-NH2 [LfcinB (20–25)]			203	203			203	203							> 203	weak cytotoxic activity	> 500	> 203
